This is an account of results in patent US20250250230A1, “HETEROCYCLIC COMPOUND” (TAKEDA PHARMACEUTICAL COMPANY LIMITED, priority 2022, published 2025).

The assay concerns the target T1, human orexin type 2 receptor (Homo sapiens, UniProt O43614).
T1 construct: expressed in transfected cells
T1 sequence (O43614 1-444): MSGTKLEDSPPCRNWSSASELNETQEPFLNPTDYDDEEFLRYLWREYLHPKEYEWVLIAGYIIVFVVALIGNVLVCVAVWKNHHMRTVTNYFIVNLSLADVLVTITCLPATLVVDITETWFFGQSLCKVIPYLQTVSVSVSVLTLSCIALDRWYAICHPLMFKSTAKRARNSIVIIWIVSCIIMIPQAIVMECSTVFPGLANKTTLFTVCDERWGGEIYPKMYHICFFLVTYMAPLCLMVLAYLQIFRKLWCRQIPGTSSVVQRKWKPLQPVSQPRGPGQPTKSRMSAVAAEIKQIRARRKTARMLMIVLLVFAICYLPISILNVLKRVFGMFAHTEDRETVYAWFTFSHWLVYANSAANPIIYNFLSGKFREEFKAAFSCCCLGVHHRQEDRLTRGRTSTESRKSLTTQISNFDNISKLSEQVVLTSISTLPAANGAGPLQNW
Kind of assay: Measurement of orexin type 2 receptor agonist activity (calcium fluorescence, Fluo-4 AM, FDSS). The format is cell-based. To be noted: test compound 3 μM; CHO cells expressing human OX2 receptor; DMSO = 0%, orexin A (human) = 100%. The method in brief:
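CHO-K1 cells stably expressing human OX2R were loaded with Fluo-4 AM (30 min 37 °C, 30 min RT) in HEPES-buffered HBSS with 0.1% BSA and probenecid. Calcium fluorescence was followed on FDSS for 2 min after compound addition; activity normalised to DMSO (0%) and 10 nM orexin A (100%).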

As for `CS(=O)(=O)N[C@@H]1CN(C(=O)[C@@H]2C[C@H]2c2ccccc2-c2c(F)cccc2F)C[C@H]1F` [Example 279, N-{(3R,4R)-1-[(1R,2R)-2-(2′,6′-difluoro[1,1′-biphenyl]-2-yl)cyclopropane-1-carbonyl]-4-fluoropyrrolidin-3-yl}methanesulfonamide], the “OX2R agonist activity (3 μM, %)” value worked out at 87%.
With `C[C@H]1C[C@H](NS(=O)(=O)N(C)C)CN1C(=O)[C@@H]1C[C@H]1c1ccccc1-c1c(F)cccc1F` [Example 281, N′-{(3S,5S)-1-[(1R,2R)-2-(2′,6′-difluoro[1,1′-biphenyl]-2-yl)cyclopropane-1-carbonyl]-5-methylpyrrolidin-3-yl}-N,N-dimethylsulfuric diamide] the figure was 96%; with `CS(=O)(=O)NC[C@H]1CN(C(=O)[C@@H]2C[C@H]2c2ccccc2-c2c(F)cccc2F)CCO1` [Example 282, N-({(2R)-4-[(1R,2R)-2-(2′,6′-difluoro[1,1′-biphenyl]-2-yl)cyclopropane-1-carbonyl]morpholin-2-yl}methyl)methanesulfonamide], 87%.
Consider `CS(=O)(=O)NC[C@@H]1CN(C(=O)[C@@H]2C[C@H]2c2ccccc2-c2c(F)cccc2F)CCO1` [Example 283, N-({(2S)-4-[(1R,2R)-2-(2′,6′-difluoro[1,1′-biphenyl]-2-yl)cyclopropane-1-carbonyl]morpholin-2-yl}methyl)methanesulfonamide], for which the “OX2R agonist activity (3 μM, %)” value was determined as 100%.
As for `CN(C)S(=O)(=O)N[C@H]1CCN(C(=O)[C@@H]2C[C@H]2c2ccccc2-c2c(F)cccc2F)C1` [Example 289, N′-{(3S)-1-[(1R,2R)-2-(2′,6′-difluoro[1,1′-biphenyl]-2-yl)cyclopropane-1-carbonyl]pyrrolidin-3-yl}-N,N-dimethylsulfuric diamide], the “OX2R agonist activity (3 μM, %)” value amounted to 99%.
With `CCS(=O)(=O)NC1COCCN(C(=O)[C@@H]2C[C@H]2c2ccccc2-c2c(F)cccc2F)C1` (stereo partly drawn) [Example 294, N-{(6S)-4-[(1R,2R)-2-(2′,6′-difluoro [1,1′-biphenyl]-2-yl)cyclopropane-1-carbonyl]-1,4-oxazepan-6-yl}ethanesulfonamide, or N-{(6R)-4-[(1R,2R)-2-(2′,6′-difluoro[1,1′-biphenyl]-2-yl)cyclopropane-1-carbonyl]-1,4-oxazepan-6-yl}ethanesulfonamide] the figure was 104%; with `CN(C)S(=O)(=O)NC1COCCN(C(=O)[C@@H]2C[C@H]2c2ccccc2-c2c(F)cccc2F)C1` (stereo partly drawn) [Example 295, N′-{(6S)-4-[(1R,2R)-2-(2′,6′-difluoro[1,1′-biphenyl]-2-yl)cyclopropane-1-carbonyl]-1,4-oxazepan-6-yl}-N,N-dimethylsulfuric diamide, or N′-{(6R)-4-[(1R,2R)-2-(2′,6′-difluoro[1,1′-biphenyl]-2-yl)cyclopropane-1-carbonyl]-1,4-oxazepan-6-yl}-N,N-dimethylsulfuric diamide], 100%.
Regarding `CC1C(NS(C)(=O)=O)CCN1C(=O)[C@@H]1C[C@H]1c1ccccc1-c1c(F)cccc1F` (stereo partly drawn) [Example 297, N-{(2R,3R)-1-[(1R,2R)-2-(2′,6′-difluoro[1,1′-biphenyl]-2-yl)cyclopropane-1-carbonyl]-2-methylpyrrolidin-3-yl}methanesulfonamide, or N-{(2S,3S)-1-[(1R,2R)-2-(2′,6′-difluoro[1,1′-biphenyl]-2-yl)cyclopropane-1-carbonyl]-2-methylpyrrolidin-3-yl}methanesulfonamide], the “OX2R agonist activity (3 μM, %)” value turned out to be 101%.
With `CN(C)S(=O)(=O)NC[C@H]1CCN1C(=O)[C@@H]1C[C@H]1c1ccccc1-c1c(F)cccc1F` [Example 298, N′-({(2R)-1-[(1R,2R)-2-(2′,6′-difluoro[1,1′-biphenyl]-2-yl)cyclopropane-1-carbonyl]azetidin-2-yl}methyl)-N,N-dimethylsulfuric diamide] the figure was 100%.
The value for `CN(C)S(=O)(=O)NC[C@@H]1CN(C(=O)[C@@H]2C[C@H]2c2ccccc2-c2c(F)cccc2F)CCO1` [Example 299, N′-({(2S)-4-[(1R,2R)-2-(2′,6′-difluoro[1,1′-biphenyl]-2-yl)cyclopropane-1-carbonyl]morpholin-2-yl}methyl)-N,N-dimethylsulfuric diamide] was 90%.
With `CN(C)S(=O)(=O)N[C@H]1CCCN(C(=O)[C@@H]2C[C@H]2c2ccccc2-c2c(F)cccc2F)C1` [Example 302, N′-{(3S)-1-[(1R,2R)-2-(2′,6′-difluoro[1,1′-biphenyl]-2-yl)cyclopropane-1-carbonyl]piperidin-3-yl}-N,N-dimethylsulfuric diamide] the figure was 97%; with `CCS(=O)(=O)N[C@H]1CCCN(C(=O)[C@@H]2C[C@H]2c2c(F)cccc2-c2c(F)cccc2F)C1` [Example 307, N-{(3S)-1-[(1R,2R)-2-(2′,3,6′-trifluoro[1,1′-biphenyl]-2-yl)cyclopropane-1-carbonyl]piperidin-3-yl}ethanesulfonamide], 100%.
`CN(C)S(=O)(=O)N[C@H]1CCN(C(=O)[C@@H]2C[C@H]2c2c(F)cccc2-c2c(F)cccc2F)C1` [Example 309, N,N-dimethyl-N′-{(3S)-1-[(1R,2R)-2-(2′,3,6′-trifluoro[1,1′-biphenyl]-2-yl)cyclopropane-1-carbonyl]pyrrolidin-3-yl}sulfuric diamide]: the “OX2R agonist activity (3 μM, %)” value amounted to 97%.
With `CN(C)S(=O)(=O)N[C@H]1CCCN(C(=O)[C@@H]2C[C@H]2c2c(F)cccc2-c2c(F)cccc2F)C1` [Example 312, N,N-dimethyl-N′-{(3S)-1-[(1R,2R)-2-(2′,3,6′-trifluoro[1,1′-biphenyl]-2-yl)cyclopropane-1-carbonyl]piperidin-3-yl}sulfuric diamide] the figure was 100%.
With `CN(C)S(=O)(=O)NC[C@@H]1CCN1C(=O)C1CC1c1c(F)cccc1-c1c(F)cccc1F` (stereo partly drawn) [Example 314, N,N-dimethyl-N′-({(2S)-1-[(1R,2R)-2-(2′,3,6′-trifluoro[1,1′-biphenyl]-2-yl)cyclopropane-1-carbonyl]azetidin-2-yl}methyl)sulfuric diamide, or N,N-dimethyl-N′-({(2S)-1-[(1S,2S)-2-(2′,3,6′-trifluoro[1,1′-biphenyl]-2-yl)cyclopropane-1-carbonyl]azetidin-2-yl}methyl)sulfuric diamide] the figure was 99%.
Take `C[C@H]1C[C@H](NS(C)(=O)=O)CN1C(=O)C1(C)CC1c1ccccc1-c1c(F)cccc1F` (stereo partly drawn) [Example 315, N-{(3S,5S)-1-[(1R,2S)-2-(2′,6′-difluoro[1,1′-biphenyl]-2-yl)-1-methylcyclopropane-1-carbonyl]-5-methylpyrrolidin-3-yl}methanesulfonamide, or N-{(3S,5S)-1-[(1S,2R)-2-(2′,6′-difluoro[1,1′-biphenyl]-2-yl)-1-methylcyclopropane-1-carbonyl]-5-methylpyrrolidin-3-yl}methanesulfonamide]: the “OX2R agonist activity (3 μM, %)” value was 91%.
